Reference: the NIST ThermoML archive (doi:10.1016/j.fluid.2010.02.021)

Assay: xn = mol fraction of the nth substance listed
Conditions: 101.3 kPa, Liquid, Falling or rolling sphere viscometry

CCn1cc[n+](C)c1.O=S(=O)([N-]S(=O)(=O)C(F)(F)F)C(F)(F)F + O
viscosity [mPa·s]
Conditions	x2 = 0	x2 = 0.1074	x2 = 0.2228	x2 = 0.3027
303.15 K	28.6	23.8	19.4	16.4
323.15 K	15.9	13.6	11.4	9.9
